Several values for one entry are separate records, joined by “and”; a condition that tells them apart may be missing. Equal values may be shown once. Where a name gives a salt, the structure may show the parent alone.
Columns and labels:
[1] = target: T1, cloned human μ-opioid receptor (Homo sapiens, UniProt P35372); test: Inhibition of DAMGO-stimulated [35S]GTPγS binding; assay type: biochemical; settings: for μ, DAMGO Ke: antagonism of DAMGO-stimulated [35S]GTPγS binding, CHO cells, means ± SE, at least three experiments; for potency at μ receptors compared to 3: compared with 3
T1 construct: expressed in transfected cells; host or cells: CHO cells
T1 sequence (P35372 whole entry): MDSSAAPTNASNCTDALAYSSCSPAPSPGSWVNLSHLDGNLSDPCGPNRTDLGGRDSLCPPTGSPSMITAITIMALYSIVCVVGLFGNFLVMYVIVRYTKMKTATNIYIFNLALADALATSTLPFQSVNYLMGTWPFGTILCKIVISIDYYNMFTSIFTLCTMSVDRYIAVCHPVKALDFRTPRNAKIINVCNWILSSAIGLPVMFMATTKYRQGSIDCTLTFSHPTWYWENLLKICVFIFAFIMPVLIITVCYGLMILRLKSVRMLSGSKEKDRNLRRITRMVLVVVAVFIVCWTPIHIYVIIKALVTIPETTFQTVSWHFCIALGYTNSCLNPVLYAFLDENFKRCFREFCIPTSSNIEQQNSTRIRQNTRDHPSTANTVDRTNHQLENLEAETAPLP
Method: (§1) Test compound assay concentrations ranged from 1-5000 nM, depending on their activity. The Ke values were calculated using the formula: Ke=[L]/DR−1, where [L] is the concentration of test compound and DR is the ratio of agonist EC50 value in the presence or absence of test compound, respectively.

[2] = target: T2, cloned human δ-opioid receptor (Homo sapiens, UniProt P41143); test: Inhibition of DPDPE-stimulated [35S]GTPγS binding; assay type: biochemical; settings: for δ, DPDPE Ke: antagonism of DPDPE-stimulated [35S]GTPγS binding, CHO cells, means ± SE, at least three experiments
T2 construct: expressed in transfected cells; host or cells: CHO cells
T2 sequence (P41143 whole entry): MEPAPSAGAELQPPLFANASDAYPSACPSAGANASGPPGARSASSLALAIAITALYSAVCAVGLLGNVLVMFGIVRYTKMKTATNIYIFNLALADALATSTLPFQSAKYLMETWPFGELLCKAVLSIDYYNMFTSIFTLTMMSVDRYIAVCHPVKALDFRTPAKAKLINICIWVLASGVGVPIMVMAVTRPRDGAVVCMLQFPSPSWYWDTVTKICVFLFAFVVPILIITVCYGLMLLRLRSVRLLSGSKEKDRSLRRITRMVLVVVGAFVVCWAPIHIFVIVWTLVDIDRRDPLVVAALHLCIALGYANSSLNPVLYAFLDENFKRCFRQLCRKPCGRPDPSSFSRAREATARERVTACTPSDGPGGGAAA
Method: as §1

[3] = target: cloned human κ-opioid receptor (Homo sapiens, UniProt P41145); test: Inhibition of U69,593-stimulated [35S]GTPγS binding; settings: for δ/κ / μ/κ: ratio of Ke values; for δ/κ: κ selectivity relative to δ; for μ/κ: κ selectivity relative to μ; for change in potency on N-methylation at the tetrahydroisoquinoline nitrogen: 8c: at all receptor subtypes, others: at κ receptors; for κ, U69,593 Ke: antagonism of U69,593-stimulated [35S]GTPγS binding, CHO cells, means ± SE, at least three experiments
Sequence of cloned human κ-opioid receptor (P41145 whole entry): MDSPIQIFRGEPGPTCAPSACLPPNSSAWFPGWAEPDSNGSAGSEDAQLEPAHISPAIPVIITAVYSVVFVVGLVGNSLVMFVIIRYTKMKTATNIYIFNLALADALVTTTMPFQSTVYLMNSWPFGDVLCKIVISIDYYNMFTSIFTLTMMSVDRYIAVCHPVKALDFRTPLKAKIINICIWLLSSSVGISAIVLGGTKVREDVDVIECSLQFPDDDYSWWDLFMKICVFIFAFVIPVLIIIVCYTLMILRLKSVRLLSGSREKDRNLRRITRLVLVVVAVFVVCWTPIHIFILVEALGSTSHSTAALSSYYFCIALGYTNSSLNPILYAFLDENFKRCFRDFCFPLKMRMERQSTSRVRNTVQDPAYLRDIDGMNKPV
Method: as §1

For COc1cccc([C@]2(C)CCN(C[C@@H](NC(=O)[C@@]3(C)Cc4ccc(O)cc4CN3)C(C)C)C[C@@H]2C)c1 (as salt: hydrochloride) [Compound 8h, (3R)-7-Hydroxy-N-[(1S)-1-{[(3R,4R)-4-(3-methoxyphenyl)-3,4-dimethylpiperidin-1-yl]methyl}-2-methylpropyl]-3-methyl-1,2,3,4-tetrahydroisoquinoline-3-carboxamide], the melting point was > 220 °C (dec.).
In the case of “(3R)-7-Methoxy-N-[(1S,2S)-1-{[(3R,4R)-4-(3-hydroxyphenyl)-3,4-dimethylpiperidin-1-yl]}-2-methylbutanyl]-3-methyl-1,2,3,4-tetrahydroisoquinoline-3-carboxamide [Compound 8m]”, the “μ, DAMGO Ke” value [1] is reported as 17.5 ± 3.6 nM, the “potency at μ receptors compared to 3” value [1] is reported as “increased potency” and the “δ, DPDPE Ke” value [2] is reported as 18.7 ± 1.5 nM. For the same compound, the δ/κ [3] was 5 and the μ/κ [3] was 5.
For COc1cccc([C@]2(C)CCN(C[C@@H](NC(=O)[C@@]3(C)Cc4ccc(OC)cc4CN3)C(C)C)C[C@@H]2C)c1 (as salt: hydrochloride) [Compound 8l, (3R)-7-Methoxy-N-[(1S)-1-{[(3R,4R)-4-(3-methoxyphenyl)-3,4-dimethylpiperidin-1-yl]methyl}-2-methylpropyl]-3-methyl-1,2,3,4-tetrahydroisoquinoline-3-carboxamide], the melting point was > 220 °C (dec.).
With COc1ccc2c(c1)CN(C)[C@@](C)(C(=O)N[C@H](CN1CC[C@@](C)(c3cccc(O)c3)[C@@H](C)C1)C(C)C)C2 [Compound 8o, (3R)-7-Methoxy-N-[(1S)-1-{[(3R,4R)-4-(3-hydroxyphenyl)-3,4-dimethylpiperidin-1-yl]methyl}-2-methylpropyl]-2,3-dimethyl-1,2,3,4-tetrahydroisoquinoline-3-carboxamide] the Kb [1] was 7 ± 1.4 nM, the Kb [3] was 2.2 ± 0.6 nM and the “change in potency on N-methylation at the tetrahydroisoquinoline nitrogen” value (“change in potency on N-methylation” for short) [3] was “decreases in potency”.
In the case of COc1cccc([C@]2(C)CCN(C[C@@H](NC(=O)[C@@]3(C)Cc4ccc(OC)cc4CN3)C(C)C)C[C@@H]2C)c1 [Compound 8l, (3R)-7-Methoxy-N-[(1S)-1-{[(3R,4R)-4-(3-methoxyphenyl)-3,4-dimethylpiperidin-1-yl]methyl}-2-methylpropyl]-3-methyl-1,2,3,4-tetrahydroisoquinoline-3-carboxamide], the Kb [2] is reported as > 10000 nM and the Kb [3] is reported as 15.2 ± 3.7 nM.
In the case of CC[C@H](C)[C@@H](CN1CC[C@@](C)(c2cccc(O)c2)[C@@H](C)C1)NC(=O)[C@H]1Cc2ccc(O)cc2CN1C [Compound 8j, (3R)-7-Hydroxy-N-[(1S,2S)-1-{[(3R,4R)-4-(3-hydroxyphenyl)-3,4-dimethylpiperidin-1-yl]methyl}-2-methylbutanyl]-2-methyl-1,2,3,4-tetrahydroisoquinoline-3-carboxamide], the Kb [1] is reported as 7.2 ± 1.8 nM, the “potency at μ receptors compared to 3” value [1] is reported as “increased potency” and the Kb [2] is reported as 132 ± 24 nM. The Kb [3] was 0.11 ± 0.03 nM, the “change in potency on N-methylation” value [3] was “decreases in potency” and the δ/κ [3] was 1200. For the same compound, the μ/κ [3] was 66.
In the case of CC[C@H](C)[C@@H](CN1CC[C@@](C)(c2cccc(O)c2)[C@@H](C)C1)NC(=O)[C@H]1Cc2ccc(O)cc2CN1C (as salt: hydrochloride) [Compound 8j, (3R)-7-Hydroxy-N-[(1S,2S)-1-{[(3R,4R)-4-(3-hydroxyphenyl)-3,4-dimethylpiperidin-1-yl]methyl}-2-methylbutanyl]-2-methyl-1,2,3,4-tetrahydroisoquinoline-3-carboxamide], the melting point is reported as 180 °C (dec.).
For CC(C)[C@@H](CN1CC[C@@](C)(c2cccc(O)c2)[C@@H](C)C1)NC(=O)[C@@]1(C)Cc2ccc(O)cc2CN1 [Compound 8e, (3R)-7-Hydroxy-N-[(1S)-1-[(3R,4R)-4-(3-hydroxyphenyl)-3,4-dimethylpiperidin-1-yl]methyl}-(2-methylpropyl]-3-methyl-1,2,3,4-tetrahydroisoquinoline-3-carboxamide], the “μ, DAMGO Ke” value [1] was 3.6 ± 1 nM, the “δ, DPDPE Ke” value [2] was 854 ± 210 nM and the “κ, U69,593 Ke” value [3] was 0.03 nM and 0.03 ± 0.008 nM.
For CC[C@H](C)[C@@H](CN1CC[C@@](C)(c2cccc(OC)c2)[C@@H](C)C1)NC(=O)[C@H]1Cc2ccc(O)cc2CN1 [Compound 8f, (3R)-7-Hydroxy-N-[(1S,2S)-1-{[(3R,4R)-4-(3-methoxyphenyl)-3,4-dimethylpiperidin-1-yl]methyl}-2-methylbutanyl]-1,2,3,4-tetrahydroisoquinoline-3-carboxamide], the Kb [1] was 5.1 ± 2 nM, the “potency at μ receptors compared to 3” value [1] was “increased potency” and the Kb [3] was 0.96 ± 0.4 nM.
With CC[C@H](C)[C@@H](CN1CC[C@@](C)(c2cccc(OC)c2)[C@@H](C)C1)NC(=O)[C@H]1Cc2ccc(O)cc2CN1C (as salt: hydrochloride) [Compound 8p, (3R)-7-Hydroxy-N-[(1S,2S)-1-{[(3R,4R)-4-(3-methoxyphenyl)-3,4-dimethylpiperidin-1-yl]methyl}-2-methylbutanyl]-2-methyl-1,2,3,4-tetrahydroisoquinoline-3-carboxamide] the melting point was 180 °C (dec.).
COc1cccc([C@]2(C)CCN(C[C@@H](NC(=O)[C@@]3(C)Cc4ccc(O)cc4CN3)C(C)C)C[C@@H]2C)c1 [Compound 8h, (3R)-7-Hydroxy-N-[(1S)-1-{[(3R,4R)-4-(3-methoxyphenyl)-3,4-dimethylpiperidin-1-yl]methyl}-2-methylpropyl]-3-methyl-1,2,3,4-tetrahydroisoquinoline-3-carboxamide] gave a Kb [2] of 2200 ± 900 nM and a Kb [3] of 0.26 ± 0.1 nM.
Work on COc1cccc([C@]2(C)CCN(C[C@@H](NC(=O)[C@H]3Cc4ccc(O)cc4CN3C)C(C)C)C[C@@H]2C)c1 [Compound 8k, (3R)-7-Hydroxy-N-[(1S)-1-{[(3R,4R)-4-(3-methoxyphenyl)-3,4-dimethylpiperidin-1-yl]methyl}-2-methylpropyl]-2-methyl-1,2,3,4-tetrahydroisoquinoline-3-carboxamide] yielded a Kb [1] of 880 ± 220 nM, a Kb [2] of 2300 ± 900 nM and a Kb [3] of 4.3 ± 2.7 nM. For the same compound, the “change in potency on N-methylation” value [3] was “decreases in potency”.
In the case of COc1cccc([C@]2(C)CCN(C[C@@H](NC(=O)[C@H]3Cc4ccc(O)cc4CN3C)C(C)C)C[C@@H]2C)c1 (as salt: hydrochloride) [Compound 8k, (3R)-7-Hydroxy-N-[(1S)-1-{[(3R,4R)-4-(3-methoxyphenyl)-3,4-dimethylpiperidin-1-yl]methyl}-2-methylpropyl]-2-methyl-1,2,3,4-tetrahydroisoquinoline-3-carboxamide], the melting point is reported as 210 to 215 °C (dec.).
In the case of CC(C)[C@@H](CN1CC[C@@](C)(c2cccc(O)c2)[C@@H](C)C1)NC(=O)[C@H]1Cc2ccc(O)cc2CN1C [Compound 8c], the “μ, DAMGO Ke” value [1] is reported as 210 ± 60 nM, the “δ, DPDPE Ke” value [2] is reported as 491 ± 120 nM and the “change in potency on N-methylation” value [3] is reported as “reduction in potency at all receptor subtypes”. The “κ, U69,593 Ke” value [3] was 0.16 nM and 0.16 ± 0.06 nM, the δ/κ [3] was 3070 and the μ/κ [3] was 1313.
For COc1cccc([C@]2(C)CCN(C[C@@H](NC(=O)[C@H]3Cc4ccc(O)cc4CN3)C(C)C)C[C@@H]2C)c1 [Compound 8d, (3R)-7-Hydroxy-N-[(1S)-1-{[(3R,4R)-4-(3-methoxyphenyl)-3,4-dimethylpiperidin-1-yl]methyl}-2-methylpropyl]-1,2,3,4-tetrahydroisoquinoline-3-carboxamide], the Kb [1] was 24 ± 8 nM, the Kb [2] was 21.2 ± 5 nM and the Kb [3] was 0.037 ± 0.003 nM. The “decrease in potency at the κ receptor relative to 3” value ([3]; compared with 3) was “two-fold decrease in potency”, the δ/κ [3] was 573 and the μ/κ [3] was 649.
With COc1ccc2c(c1)CN[C@@](C)(C(=O)N[C@H](CN1CC[C@@](C)(c3cccc(O)c3)[C@@H](C)C1)C(C)C)C2 [Compound 8g, (3R)-7-Methoxy-N-[(1S)-1-[(3R,4R)-4-(3-hydroxyphenyl)-3,4-dimethylpiperidin-1-yl]methyl}-(2-methylpropyl]-3-methyl-1,2,3,4-tetrahydroisoquinoline-3-carboxamide] the “μ, DAMGO Ke” value [1] was 3.8 ± 1.1 nM, the “δ, DPDPE Ke” value [2] was 36.8 ± 6.9 nM and the “κ, U69,593 Ke” value [3] was 0.93 ± 0.05 nM. It also gave a δ/κ [3] of 40 and a μ/κ [3] of 4.
Work on CC[C@H](C)[C@@H](CN1CC[C@@](C)(c2cccc(OC)c2)[C@@H](C)C1)NC(=O)[C@@]1(C)Cc2ccc(O)cc2CN1 [Compound 8n, (3R)-7-Hydroxy-N-[(1S,2S)-1-{[(3R,4R)-4-(3-methoxyphenyl)-3,4-dimethylpiperidin-1-yl]methyl}-2-methylbutanyl)-3-methyl-1,2,3,4-tetrahydroisoquinoline-3-carboxamide] yielded a Kb [2] of 2100 ± 600 nM and a Kb [3] of 0.52 ± 0.2 nM.
For CC[C@H](C)[C@@H](CN1CC[C@@](C)(c2cccc(O)c2)[C@@H](C)C1)NC(=O)[C@@]1(C)Cc2ccc(O)cc2CN1 [Compound 8i, (3R)-7-Hydroxy-N-[(1S,2S)-1-{[(3R,4R)-4-(3-hydroxyphenyl)-3,4-dimethylpiperidin-1-yl]methyl}-2-methylbutanyl]-3-methyl-1,2,3,4-tetrahydroisoquinoline-3-carboxamide], the Kb [1] was 8.7 ± 2.7 nM, the “potency at μ receptors compared to 3” value [1] was “increased potency” and the Kb [3] was 0.11 ± 0.01 nM.
For CC[C@H](C)[C@@H](CN1CC[C@@](C)(c2cccc(OC)c2)[C@@H](C)C1)NC(=O)[C@H]1Cc2ccc(O)cc2CN1C [Compound 8p, (3R)-7-Hydroxy-N-[(1S,2S)-1-{[(3R,4R)-4-(3-methoxyphenyl)-3,4-dimethylpiperidin-1-yl]methyl}-2-methylbutanyl]-2-methyl-1,2,3,4-tetrahydroisoquinoline-3-carboxamide], the Kb [1] was 360 ± 120 nM, the Kb [2] was > 10000 nM and the Kb [3] was 2.03 ± 0.03 nM. For the same compound, the “change in potency on N-methylation” value [3] was “decreases in potency” and the μ/κ [3] was 180.
